Reference: PubChem BioAssay (NCI)
“And” between values parts separate entries of the source, which are not always exact repeats. Equal values may be shown once.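 Five concentrations, 48 hours, 96-well plates. At the TGI there is no net growth.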

How the values were obtained:
Test in all cases: NCI tumour cell line growth inhibition, 48 h
UACC-257 melanoma = tested on: UACC-257 melanoma
MOLT-4 leukemia = tested on: MOLT-4 leukemia
M14 melanoma = tested on: M14 melanoma
SNB-75 CNS = tested on: SNB-75 CNS
K-562 leukemia = tested on: K-562 leukemia
U251 CNS = tested on: U251 CNS
SF-539 CNS = tested on: SF-539 CNS
SNB-19 CNS = tested on: SNB-19 CNS
T-47D breast = tested on: T-47D breast
HS 578T breast = tested on: HS 578T breast

Compound | TGI (UACC-257 melanoma) | TGI (MOLT-4 leukemia) | TGI (M14 melanoma) | TGI (SNB-75 CNS) | TGI (K-562 leukemia) | TGI (U251 CNS) | TGI (SF-539 CNS) | TGI (SNB-19 CNS) | TGI (T-47D breast) [µM] | TGI (HS 578T breast) [µM]
NC1=NS(=O)(=O)N=C(N)C1=Cc1ccc([N+](=O)[O-])o1 | 28.9 µM | 40.7 µM | 26.9 µM | 29.9 µM | 19.5 µM | > 100 µM | 32.3 µM | > 100 µM |  | 
Oc1ccc(-c2c3c(nc4c2CCc2ccc(Br)cc2-4)-c2cc(Br)ccc2CC3)cc1 | 69.4 µM |  | 55.1 µM | 54.9 µM |  | 34.2 µM |  | 46.9 µM | 42.6 | 
COc1ccc(CNc2nc(NCc3ccc(OC)cc3)nc(NC3CCCCC3)n2)cc1 | > 100 µM | > 100 µM |  |  | > 100 µM | > 100 µM | > 100 µM | 5.96 µM | > 100 | 4.85
O=S1(=O)NNC(=NCc2ccc(F)cc2)c2ccccc21 | > 100 µM | > 70.8 µM | > 100 µM |  | > 73.1 µM | > 83.4 µM | > 100 µM | > 100 µM | > 100 | 49.2
O=C1CSC2(CC(/C=C/C=C/c3ccccc3)=NN2c2cccc(S(=O)(=O)O)c2)N1c1nc2ccccc2s1 (configuration not stated) | > 100 µM | 67.1 µM | > 100 µM | > 100 µM | > 100 µM | 74.4 µM | > 100 µM | > 100 µM | > 100 | 
NC(N)=N/N=C(\c1ccc(Cl)cc1)C1CC1 | 28 µM |  | 30 µM | 68.9 µM | 55.7 µM | 27.2 µM | 32.3 µM | > 100 µM | 64.4 | 78.3
CCOC(=O)CCC1(C(=O)OC)CCCC1=O (configuration not stated) | > 100 µM | > 100 µM |  | > 100 µM | > 100 µM | > 100 µM | > 100 µM | > 100 µM |  | 
COc1ccc(N2C(=O)C3c4[nH]c5ccc(C)cc5c4C4CCC(C(C)C)CC4C3C2=O)cc1 (configuration not stated) | > 100 µM | > 100 µM | > 100 µM | 74.2 µM | > 100 µM | > 100 µM |  | > 100 µM | > 100 | > 100
CC(=O)Oc1ccc2cc(Oc3ccc(Cl)cc3)c(=O)oc2c1 | 78.7 µM |  | > 100 µM | > 100 µM |  | > 100 µM | 82.7 µM | > 100 µM | > 100 | > 100
CCOC(=O)C1C/C(C)=C(/C)SCCCS1 (configuration not stated) | > 100 µM | > 100 µM | > 100 µM |  | > 100 µM | > 100 µM | > 100 µM | > 100 µM | > 100 | > 100
CC1=NN(C(=O)CC(=O)Nc2cccc(Cl)c2)C(=O)C1N=Nc1ccc(S(N)(=O)=O)cc1 (configuration not stated) | > 100 µM | > 100 µM | > 100 µM | > 100 µM |  | > 100 µM | > 100 µM | > 100 µM |  | 
CCCCc1ccc2[n+](c1)C(C(=O)OCC)=PC2 (configuration not stated) | > 100 µM | > 100 µM | > 100 µM | > 100 µM |  | > 100 µM | > 100 µM |  |  | > 100
O=c1[nH]c(=O)n(C2CC(O)C(CO)O2)cc1C#Cc1ccc(C(F)(F)F)cc1 (configuration not stated) | > 100 µM | > 100 µM | > 100 µM | > 100 µM | > 100 µM | > 100 µM | > 100 µM | > 100 µM |  | 
CC(=O)N[C@@H](Cc1ccc(O)cn1)C(=O)NCc1ccc2c(c1)OCO2 | > 100 µM | > 100 µM | > 100 µM |  | > 100 µM | > 100 µM | > 100 µM | > 100 µM | > 100 | > 100
C/C(=N\N(C)C)C(CN(C)C)C(c1ccccc1)c1c(O)c2ccccc2oc1=O (configuration not stated) | > 100 µM | > 100 µM | > 100 µM | > 100 µM | > 100 µM | > 100 µM |  | > 100 µM |  | 
O=c1c(Cc2ccc(Cl)cc2)nnc2sc(-c3ccc([N+](=O)[O-])cc3)nn12 | 39.5 µM | > 100 µM | 39.2 µM |  | > 100 µM | > 100 µM |  | > 100 µM |  | > 100
COc1ccccc1C(=O)c1c(N2CCCCC2)c(=O)c1=O | > 100 µM | > 100 µM | > 100 µM | > 100 µM | > 100 µM | > 100 µM | > 100 µM | > 100 µM |  | 
CC1(C)CC(=O)C(/C=N/c2nc(-c3ccc(Br)cc3)cs2)=C(O)C1 | 38.3 µM | > 100 µM | 48.4 µM | 72.8 µM |  | > 100 µM | 61 µM | > 100 µM | > 100 | 
O=C1CCC2(CCC(=O)NC2=O)C(=O)N1 | > 100 µM | > 100 µM | > 100 µM |  | > 100 µM | > 100 µM | > 100 µM | > 100 µM |  | 
CCCCCCCCCCCCC(=O)NCC(=O)NC(Cc1ccccc1)C(=O)Oc1ccc([N+](=O)[O-])cc1 (configuration not stated) | > 100 µM |  | > 100 µM | > 100 µM |  |  | > 100 µM | > 100 µM | > 100 | > 100
c1ccc(C2=NN3CN(N2)c2ccccc2OCCCOc2ccccc23)cc1 |  | > 100 µM | > 100 µM | > 100 µM | > 100 µM | > 100 µM | > 100 µM | > 100 µM |  | 
Brc1ccc(N2C[N+](c3ccc(Br)cc3)=NC(c3ccccc3)=N2)cc1 | 31.3 µM and > 100 µM | 32.5 µM and > 100 µM | 26.2 µM and > 100 µM | 48.4 µM and > 100 µM | 32.8 µM and > 100 µM | 33.5 µM and > 100 µM | 29.8 µM and > 100 µM | 32.6 µM and > 100 µM |  | 
O=C(c1ccccc1F)c1c(NCc2ccccc2)c(=O)c1=O | > 100 µM | > 100 µM | > 100 µM | > 100 µM | > 100 µM | > 100 µM | > 100 µM | > 100 µM |  | > 100
C=CCc1c(O)c2ccccc2[nH]c1=O | > 100 µM | > 100 µM |  | > 100 µM | > 100 µM | > 100 µM | > 100 µM | > 100 µM |  | > 100
Cc1ccc2c(c1)c(=O)c1c(NCCN(C)C)ccc3nnn2c31 | 14.2 µM | 5.06 µM | 16.4 µM | 16.9 µM | 19.6 µM | 16.9 µM | 17.8 µM | 33.8 µM |  | 
